Assay results reported in patent US20180000089A1, “NOVEL MICROBIOCIDES” (Syngenta Participations AG, priority 2015, published 2018).

What was measured:
[1] = system: Glomerella lagenarium (Colletotrichum Lagenarium); experiment: Glomerella lagenarium (Colletotrichum lagenarium) / liquid culture (anthracnose); format: cell-based; details: Colletotrichum orbiculare, PDB, 24° C., inhibition of growth measured photometrically 3-4 days after application, read-out: disease control
Description: (§1) 10 Glomerella lagenarium (Colletotrichum Lagenarium)/Liquid Culture (Anthracnose): Conidia of the fungus from cryogenic storage were directly mixed into nutrient broth (PDB potato dextrose broth). After placing a DMSO solution of test compound into a 96-well microtiter plate at an application rate of 200 ppm, the nutrient broth containing the fungal spores was added. The test plates were incubated at 24° C. and the inhibition of growth was measured photometrically 3-4 days after application.

Plasmopara viticola = experiment: whole plant or invertebrate; format: in vivo; details: foliar, read-out: disease control
[2] = system: Monographella nivalis (Microdochium nivale); experiment: Monographella nivalis (Microdochium nivale) / liquid culture (foot rot cereals); format: cell-based; details: PDB, 24° C., inhibition of growth determined photometrically 4-5 days after application, read-out: disease control
Description: as §1, with “14 Monographella nivalis (Microdochium nivale)/liquid culture (foot rot cereals):” for “10 Glomerella lagenarium (Colletotrichum Lagenarium)/Liquid Culture (Anthracnose):”, “determined” for “measured”, “4-5” for “3-4”

Pyrenophora teres = Pyrenophora teres / barley / leaf disc preventative (net blotch); format: in vivo; details: 200 ppm; barley leaf segments cv Hasso, inoculated two days after application; assessed 5-7 days after application vs untreated
Description: 5 Pyrenophora teres/Barley/Leaf Disc Preventative (Net Blotch): Barley leaf segments cv Hasso were placed on agar in a 24-well plate and sprayed with formulated test compound diluted in water at an application rate of 200 ppm. The leaf segments were inoculated with a spore suspension of the fungus two days after application of the test solution. The inoculated leaf segments were incubated at 20° C. and 65% relative humidity under a light regime of 12/12 h (light/dark) in a climate cabinet and the activity of a compound was assessed as disease control compared to untreated when an appropriate level of disease damage appears in untreated check leaf segments (5-7 days after application).

Pythium ultimum = Pythium ultimum / liquid culture (seedling damping off); format: cell-based; details: Globisporangium ultimum, potato dextrose broth, 24° C., inhibition of growth determined photometrically 2-3 days after application, read-out: disease control
Description: 8 Pythium ultimum/Liquid Culture (Seedling Damping Off) Mycelia fragments and oospores of a newly grown liquid culture of the fungus were directly mixed into nutrient broth (potato dextrose broth). After placing a DMSO solution of test compound into a 96-well format microtiter plate at an application rate of 200 ppm, the nutrient broth containing the fungal mycelia/spore mixture was added. The test plates were incubated at 24° C. and the inhibition of growth was determined photometrically 2-3 days after application.

Sclerotinia sclerotiorum = Sclerotinia sclerotiorum / liquid culture (cottony rot); format: cell-based; details: PDB, 24° C., inhibition of growth determined visually 3-4 days after application, read-out: disease control
Description: 17 Sclerotinia sclerotiorum/liquid culture (cottony rot): Mycelia fragments of a newly grown liquid culture of the fungus were directly mixed into nutrient broth (PDB potato dextrose broth). After placing a (DMSO) solution of the test compounds into a microtiter plate (96-well format) the nutrient broth containing the fungal material was added. The test plates were incubated at 24° C. and the inhibition of growth was determined visually 3-4 days after application.

Gaeumannomyces Graminis = experiment: Gaeumannomyces graminis / liquid culture (take-all of cereals); format: cell-based; details: PDB, 24° C., inhibition of growth determined photometrically 4-5 days after application, read-out: disease control
Description: 13 Gaeumannomyces Graminis/Liquid Culture (Take-all of Cereals): Mycelial fragments of the fungus from cryogenic storage were directly mixed into nutrient broth (PDB potato dextrose broth). […] The test plates were incubated at 24° C. and the inhibition of growth was determined photometrically 4-5 days after application.

[3] = system: Botryotinia fuckeliana (Botrytis cinerea); experiment: Botryotinia fuckeliana (Botrytis cinerea) / liquid culture (gray mould); format: cell-based; details: Vogels broth, 24° C., inhibition of growth determined photometrically 3-4 days after application, read-out: disease control
Description: as §1, with “9 Botryotinia fuckeliana (Botrytis cinerea)/liquid culture (Gray mould):” for “10 Glomerella lagenarium (Colletotrichum Lagenarium)/Liquid Culture (Anthracnose):”, “(Vogels” for “(PDB potato dextrose”, “determined” for “measured”

[4] = system: Mycosphaerella arachidis (Cercospora arachidicola); experiment: Mycosphaerella arachidis (Cercospora arachidicola) / liquid culture (early leaf spot); format: cell-based; details: PDB, 24° C., inhibition of growth determined photometrically 4-5 days after application, read-out: disease control
Description: as §1, with “11 Mycosphaerella arachidis (Cercospora arachidicola)/Liquid” for “10 Glomerella lagenarium (Colletotrichum Lagenarium)/Liquid”, “(Early Leaf Spot):” for “(Anthracnose):”, “determined” for “measured”, “4-5” for “3-4”

Fusarium culmorum = experiment: microbe, parasite or virus in culture; format: cell-based; details: read-out: disease control
[5] = system: Mycosphaerella graminicola (Septoria tritici); experiment: Mycosphaerella graminicola (Septoria tritici) / liquid culture (Septoria blotch); format: cell-based; details: Zymoseptoria tritici, PDB, 24° C., inhibition of growth determined photometrically 4-5 days after application, read-out: disease control
Description: as §1, with “12 Mycosphaerella graminicola (Septoria tritici)/Liquid” for “10 Glomerella lagenarium (Colletotrichum Lagenarium)/Liquid”, “(Septoria Blotch):” for “(Anthracnose):”, “determined” for “measured”, “4-5” for “3-4”

Alternaria solani = Alternaria solani / tomato / leaf disc (early blight); format: in vivo; details: 200 ppm; tomato leaf disks cv. Baby, inoculated 2 days after application; assessed 5-7 days after application vs untreated
Description: 6 Alternaria solani/Tomato/Leaf Disc (Early Blight) Tomato leaf disks cultivated variety (cv.) Baby were placed on agar in multiwell plates (24-well format) and sprayed with the formulated test compound diluted in water at an application rate of 200 ppm. The leaf disks were inoculated with a spore suspension of the fungus 2 days after application. The inoculated leaf disks were incubated at 23° C./21° C.

[6] = system: Thanatephorus cucumeris (Rhizoctonia solani); experiment: Thanatephorus cucumeris (Rhizoctonia solani) / liquid culture (foot rot, damping-off); format: cell-based; details: PDB, 24° C., inhibition of growth determined photometrically 3-4 days after application, read-out: disease control
Description: 16 Thanatephorus cucumeris (Rhizoctonia solani)/liquid culture (foot rot, damping-off): Mycelia fragments of a newly grown liquid culture of the fungus were directly mixed into nutrient broth (PDB potato dextrose broth). After placing a DMSO solution of the test compounds into a 96-well microtiter plate at an application rate of 200 ppm, the nutrient broth containing the fungal material was added. The test plates were incubated at 24° C. and the inhibition of growth was determined photometrically 3-4 days after application.

[7] = system: Magnaporthe grisea (Pyricularia oryzae); format: in vivo; details: 200 ppm; rice leaf segments cv. Ballila, inoculated 2 days after application; assessed 5-7 days after application vs untreated

Structure (SMILES)	inhibition of growth at 200 ppm [1]	pest or weed control at 200 ppm (Plasmopara viticola)	inhibition of growth at 200 ppm [2]	disease control (Pyrenophora teres)	inhibition of growth at 200 ppm (Pythium ultimum)	melting point	inhibition of growth at 200 ppm (Sclerotinia sclerotiorum)	inhibition of growth at 200 ppm (Gaeumannomyces Graminis)	inhibition of growth at 200 ppm [3]	inhibition of growth at 200 ppm [4]	inhibition of growth at 200 ppm (Fusarium culmorum)	inhibition of growth at 200 ppm [5]	disease control (Alternaria solani)	inhibition of growth at 200 ppm [6]	disease control [7]
OB1OCc2cc(F)c(-c3ccc(F)cc3)cc21 [Compound 10]	≥ 80%	≥ 80%	≥ 80%	at least 80%	≥ 80%	161 to 163 °C	≥ 80%	≥ 80%	≥ 80%	≥ 80%	≥ 80%	≥ 80%	–	–	–
OB1OCc2ccc(-c3ccccc3)cc21 [Compound 1, 1-hydroxy-6-phenyl-3H-2,1-benzoxaborole]	≥ 80%	≥ 80%	≥ 80%	–	≥ 80%	140 to 150 °C	≥ 80%	≥ 80%	≥ 80%	≥ 80%	–	≥ 80%	at least 80%	–	–
COc1ccc(Cl)cc1-c1cc2c(cc1Cl)COB2O [Compound 31]	≥ 80%	–	≥ 80%	–	≥ 80%	–	≥ 80%	–	≥ 80%	≥ 80%	≥ 80%	≥ 80%	–	≥ 80%	–
OB1OCc2cc(F)c(-c3ccccc3)cc21 [Compound 9]	≥ 80%	≥ 80%	≥ 80%	–	≥ 80%	142 to 152 °C	≥ 80%	≥ 80%	≥ 80%	≥ 80%	≥ 80%	≥ 80%	–	–	at least 80%
OB1OCc2cc(Cl)c(-c3ccccc3)cc21 [Compound 3, 5-chloro-1-hydroxy-6-phenyl-3H-2,1-benzoxaborole]	≥ 80%	≥ 80%	≥ 80%	–	≥ 80%	135 to 145 °C	≥ 80%	≥ 80%	≥ 80%	≥ 80%	≥ 80%	≥ 80%	–	≥ 80%	–
COc1ccccc1-c1cc2c(cc1Cl)COB2O [Compound 7, 5-chloro-1-hydroxy-6-(2-methoxyphenyl)-3H-2,1-benzoxaborole]	≥ 80%	≥ 80%	–	–	≥ 80%	90 to 105 °C	–	–	–	–	≥ 80%	≥ 80%	–	≥ 80%	–
OB1OCc2cc(F)c(-c3ccc(Cl)cc3Cl)cc21 [Compound 28]	–	–	–	–	–	–	≥ 80%	≥ 80%	≥ 80%	≥ 80%	–	≥ 80%	–	≥ 80%	–
